Measurements from patent US20180273528A1 (LES LABORATOIRES SERVIER, priority 2015, published 2018).

Key:
DYRK1A [1] = biological target: T1, DYRK1A (Homo sapiens, UniProt Q13627); test: Pharmacodynamic assay in RS4;11 tumor xenografts for inhibition of DYRK1A autophosphorylation; type: in vivo; set-up: tumors were excised and proteins were extracted in tissue lysis buffer; from tissue; host or cells: RS4;11 human leukemia xenograft tumors grown in female SCID mice; settings: mouse, single oral administration, 2 h, RS4;11 tumors in SCID mice, read-out: phospho-Ser520-DYRK1A (% control at 2 h)
Procedure: For pharmacodynamics studies of inhibition of DYRK1A autophosphorylation, female SCID mice were injected subcutaneously with RS4; 11 human acute lymphoblastic leukemia cells. When tumors reached a size of 200-300 mm^3, mice were randomized into homogeneous groups of 3 and given a single oral administration of the compounds of the invention at doses of up to 100 mg/kg. […] The relative levels of phospho-Ser520-DYRK1A were assayed using western blotting. For this, lysates were diluted into Laemmli sample buffer (Bio-Rad) containing 5% v/v β-mercaptoethanol, heated for 5 min at 95° C., and resolved on Tris-glycine gels or NuPage Bis-Tris gels (Novex; Invitrogen). Biotinylated molecular weight standards (Cell Signaling Technology) were included in all gels. Proteins were transferred to nitrocellulose membranes (Hybond, ECL; Amersham), which were blocked in Tris-buffered saline/0.1% tween 20 (TBST) containing 5% milk, and probed at 4° C. overnight with anti-phospho-Ser520-DYRK1A antibody (Eurogentec SE6974-75; 0.23 μg/ml in 5% BSA) or anti DYRK1A antibody (Abnova H00001859; 0.5 μg/ml in 5% milk). Peroxidase-conjugated secondary antibodies were diluted into 5% milk and applied to membranes for 1 h at 20° C. Chemiluminescence detection was performed using the ECL plus western blotting detection kit (Amersham) and was recorded on ECL plus hyperfilm (Amersham). Blots were scanned using the Bio-Rad GS-800 calibrated densitometer and quantitative analysis of western blots was performed using TotalLab software (Amersham). The percentage inhibition of phospho-Ser520-DYRK1A as compared to the control tumors was calculated using the ratio between phospho-Ser520-DYRK1A and total DYRK1A signals at each dose.

DYRK1A [2] = biological target: T1, DYRK1A; test: Kinase TR-FRET assay, DYRK1A; type: biochemical; set-up: full-length, wild-type human DYRK1A (NM_001396) with an HA tag; expressed in transfected cells; host or cells: human U2-OS osteosarcoma cells, transient transfection of a pcDNA3.1 plasmid; settings: full-length human kinase, 10 μM ATP
Method in brief: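 Compounds tested at 0.1 nM to 30 μM in reaction buffer; reaction stopped with 10 mM EDTA. Phosphorylated MBP detected with 1 nM Europium-labelled anti-phospho-Thr232 antibody by TR-FRET.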

SMILES	response vs control in vivo at 9 mg/kg (DYRK1A [1]; dose 9 mg/kg) [%]	IC50 (DYRK1A [2]) [µM]	response vs control in vivo at 3 mg/kg (DYRK1A [1]) [%]
Cc1nc2ccc(-c3cc(N)nc(N)c3)nc2n1C1CC1 [Example 9, 4-(3-cyclopropyl-2-methyl-3H-imidazo[4,5-b]pyridin-5-yl)pyridine-2,6-diamine]	–	0.011	44
Cc1nc2ccc(-c3cc(N)nc(N)c3)nc2n1Cc1ccoc1 [Example 42, 4-[3-(furan-3-ylmethyl)-2-methyl-3H-imidazo[4,5-b]pyridin-5-yl]pyridine-2,6-diamine]	–	0.012	35
Cc1nc2ccc(-c3cc(N)nc(N)c3)nc2n1CCCC(F)(F)F [Example 71, 4-[2-methyl-3-(4,4,4-trifluorobutyl)-3H-imidazo[4,5-b]pyridin-5-yl]pyridine-2,6-diamine]	–	0.006	33
Cc1nc2ccc(-c3cc(N)nc(N)c3)nc2n1C1CC(F)(F)C1 [Example 101, 4-[3-(3,3-difluorocyclobutyl)-2-methyl-3H-imidazo[4,5-b]pyridin-5-yl]pyridine-2,6-diamine]	–	0.003	25
Cc1nc2ccc(-c3cc(N)nc(N)c3)nc2n1C1CC(F)C1 (centres unmarked) [Example 103, 4-[3-(3-fluorocyclobutyl)-2-methyl-3H-imidazo[4,5-b]pyridin-5-yl]pyridine-2,6-diamine]	–	0.006	41

The remaining lines, values ahead:

response vs control in vivo at 9 mg/kg (DYRK1A [1]; dose 9 mg/kg) [%]	IC50 (DYRK1A [2]) [µM]	response vs control in vivo at 3 mg/kg (DYRK1A [1]) [%]	SMILES
46	0.008	–	Cc1nc2ccc(-c3cc(N)nc(N)c3)nc2n1C[C@@H](C)Oc1ccccc1 (single isomer, unassigned) [Example 106]
–	0.004	28	CCn1c(C)nc2ccc(-c3cc(N)nc(N)c3)nc21 [Example 154, 4-(3-ethyl-2-methyl-3H-imidazo[4,5-b]pyridin-5-yl)pyridine-2,6-diamine]
